Counter-ions that a name gives are not always drawn.
Assays:
[1] = target: nicotinic receptors containing the α7 subunit (Rattus norvegicus, UniProt Q05941); assay: biochemical; assay type: binding
nicotinic receptors containing the α7 subunit, sequence (Q05941 23-502): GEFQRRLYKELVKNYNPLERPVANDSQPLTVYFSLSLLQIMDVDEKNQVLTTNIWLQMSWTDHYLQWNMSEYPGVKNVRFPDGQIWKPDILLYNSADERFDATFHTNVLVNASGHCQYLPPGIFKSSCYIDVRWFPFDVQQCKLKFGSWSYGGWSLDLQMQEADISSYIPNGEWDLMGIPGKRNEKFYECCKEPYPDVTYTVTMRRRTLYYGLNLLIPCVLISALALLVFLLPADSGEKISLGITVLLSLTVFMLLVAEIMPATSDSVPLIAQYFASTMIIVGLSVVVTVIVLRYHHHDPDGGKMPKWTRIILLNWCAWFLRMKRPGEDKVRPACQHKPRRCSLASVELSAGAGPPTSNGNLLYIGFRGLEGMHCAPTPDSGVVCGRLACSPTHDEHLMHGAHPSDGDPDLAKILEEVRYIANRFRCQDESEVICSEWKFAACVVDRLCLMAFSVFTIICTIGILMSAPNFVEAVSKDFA

SMILES	IC50 [1]	melting point
c1coc(-c2ccc(C34CCCN(CC3)C4)nn2)c1 (racemic) [Compound 8]	442 nM	
c1nc(-c2ccc(C34CCCN(CC3)C4)nn2)c[nH]1 (stereo not drawn) (as salt: HCl) [18]		271 to 273 °C
Cc1csc(-c2ccc(C34CCCN(CC3)C4)nn2)c1 (racemic) [Compound 3]	428 nM	139 to 140 °C
c1c[nH]c(-c2ccc(C34CCCN(CC3)C4)nn2)n1 (stereo not drawn) (as salt: HBr)		290 to 292 °C
c1coc(-c2ccc(C34CCCN(CC3)C4)nn2)c1 (racemic) (as salt: HCl) [Compound 8]		274 to 275 °C
c1cc(-c2ccc(C34CCCN(CC3)C4)nn2)co1 (racemic)		140 to 141 °C
Clc1ccc(C23CCCN(CC2)C3)nn1 (racemic) (as salt: HCl)		234 to 235 °C
COc1ccc(-c2ccc(C34CCCN(CC3)C4)nn2)cc1 (racemic) [Compound 7]	164 nM	
c1n[nH]cc1-c1ccc(C23CCCN(CC2)C3)nn1 (stereo not drawn) (as salt: HBr) [22]		295 to 297 °C
c1cncc(-c2ccc(C34CCCN(CC3)C4)nn2)c1 (racemic)		131 to 133 °C
COc1ccc(-c2ccc(C34CCCN(CC3)C4)nn2)cc1 (racemic) (as salt: HCl) [Compound 7]		229 to 231 °C
c1c[nH]c(-c2ccc(C34CCCN(CC3)C4)nn2)c1 (stereo not drawn)		207 to 209 °C
c1cc(-c2ccc(C34CCCN(CC3)C4)nn2)co1 (stereo not drawn) (as salt: HCl)		226 to 228 °C
c1n[nH]cc1-c1ccc(C23CCCN(CC2)C3)nn1 (stereo not drawn) (as salt: HBr) [20]		221 to 223 °C
